# In patent US12317891B2, “Protein product capable of immobilizing target and being cleared as required” (SHAANXI NORMAL UNIVERSITY, priority 2020, dated 2025):
# Tested on: snails
# Assay: Insect control performance verification: cabbage leaves fed to snails
# Assay type: in vivo
# Conditions: leaves sprayed with 10 mg/mL suspension; 10 snails per group
# Description: Cabbage leaves each at a size of 5 cm×5 cm were divided into four groups with four cabbage leaves in each group. […] The four groups of leaves were respectively administered to four groups of snails with 10 snails in each group. The consumption rate by the snails for the untreated cabbage leaf group was almost 100%. The consumption rate by the snails for the cabbage leaves simply sprayed with the imidacloprid suspension was about 30%. […] The consumption rate by the snails for the cabbage leaves that were first sprayed with the suspension of the protein product of the present disclosure and then treated with the Vc aqueous solution or the fruit and vegetable detergent was increased to 80%.
smiles,measurement,value
O=[N+]([O-])NC1=NCCN1Cc1ccc(Cl)nc1 [imidacloprid],consumption rate of cabbage leaves by the snails,about 30%
